Measured values as given in patent US20260297080A1, “BICYCLIC COMPOUNDS AS CDK INHIBITORS” (BeOne Medicines I GmbH, priority 2022, published 2026).

Legend:
CDK2/Cyclin E1 = CDK2/Cyclin E1 (Homo sapiens, UniProt P24941); assay: CDK2/Cyclin E1 Biochemical Assay (TR-FRET), 0.060 mM ATP; conditions: 0.15 μM Rb (Ser780)-biotin substrate, pH7.0, 60 min preincubation, 120 min reaction, room temperature
How it was run: (§1)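 Inhibitor concentrations up to 10 μM were preincubated with each cyclin–kinase complex for 60 minutes before ATP and biotinylated Rb (Ser780) substrate (0.15 μM) were added. After 120 minutes at room temperature, phosphorylation was quantified by HTRF and IC50 values were fitted with a four-parameter logistic equation.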

CDK1/Cyclin B1 = CDK1/Cyclin B1 (Homo sapiens, UniProt P06493); assay: CDK1/Cyclin B1 Biochemical Assay (TR-FRET), 0.015 mM ATP; conditions: 0.15 μM Rb (Ser780)-biotin substrate, pH7.0, 60 min preincubation, 120 min reaction, room temperature
CDK1/Cyclin B1, sequence (P06493 whole entry): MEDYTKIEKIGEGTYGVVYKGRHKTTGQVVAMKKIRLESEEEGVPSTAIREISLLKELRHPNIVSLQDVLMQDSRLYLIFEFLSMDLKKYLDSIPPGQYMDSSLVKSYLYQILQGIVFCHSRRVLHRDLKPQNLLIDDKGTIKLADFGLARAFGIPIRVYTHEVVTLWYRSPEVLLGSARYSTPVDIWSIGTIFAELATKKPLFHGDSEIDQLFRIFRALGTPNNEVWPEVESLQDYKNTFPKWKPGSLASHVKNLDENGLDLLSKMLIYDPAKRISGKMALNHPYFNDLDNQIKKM
CDK1/Cyclin B1, sequence (P14635 whole entry partner): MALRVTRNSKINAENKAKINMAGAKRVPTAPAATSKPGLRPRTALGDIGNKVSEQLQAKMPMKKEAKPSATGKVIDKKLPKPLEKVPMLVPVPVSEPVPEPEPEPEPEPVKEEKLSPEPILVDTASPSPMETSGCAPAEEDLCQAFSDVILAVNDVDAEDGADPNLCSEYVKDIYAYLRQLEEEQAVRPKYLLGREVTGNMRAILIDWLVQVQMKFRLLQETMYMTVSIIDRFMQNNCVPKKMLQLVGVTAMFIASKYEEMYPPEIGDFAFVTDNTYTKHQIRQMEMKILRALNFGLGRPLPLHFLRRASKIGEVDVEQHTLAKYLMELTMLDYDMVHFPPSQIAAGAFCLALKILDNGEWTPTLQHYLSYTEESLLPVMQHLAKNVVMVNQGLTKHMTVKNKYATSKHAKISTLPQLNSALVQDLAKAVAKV
How it was run: as §1

Row | SMILES | IC50 (CDK2/Cyclin E1) | IC50 (CDK1/Cyclin B1)
1 | CCN1Cc2c(ccc(Nc3cc([C@@H]4CC[C@H](OC(=O)NC(C)C)C4)[nH]n3)c2F)S1(=O)=O (relative stereo) [Example 60, cis-3-(3-((2-ethyl-4-fluoro-1,1-dioxido-2,3-dihydrobenzo[d]isothiazol-5-yl)amino)-1H-pyrazol-5-yl)cyclopentyl isopropylcarbamate] | 0.0092 µM | 0.497 µM
2 | CC(C)NC(=O)O[C@H]1CC[C@@H](c2cc(Nc3ccc4c(c3F)CN(C3CCCN(C)C3)S4(=O)=O)n[nH]2)C1 (relative stereo) [Example 61, cis-3-(3-((4-fluoro-2-(1-methylpiperidin-3-yl)-1,1-dioxido-2,3-dihydrobenzo[d]isothiazol-5-yl)amino)-1H-pyrazol-5-yl)cyclopentyl isopropylcarbamate] | 0.01 µM | 0.836 µM
3 | CC(C)NC(=O)O[C@H]1CC[C@@H](c2cc(Nc3ccc4c(c3F)CN(C3CCN(C)CC3)S4(=O)=O)n[nH]2)C1 (relative stereo) [Example 62, cis-3-(3-((4-fluoro-2-(1-methylpiperidin-4-yl)-1,1-dioxido-2,3-dihydrobenzo[d]isothiazol-5-yl)amino)-1H-pyrazol-5-yl)cyclopentyl isopropylcarbamate] | 0.0095 µM | 0.758 µM
4 | CC(C)NC(=O)O[C@H]1CC[C@@H](c2cc(Nc3ccc4c(c3F)CN(C3CCN(Cc5ccccc5)CC3)S4(=O)=O)n[nH]2)C1 (relative stereo) [Example 63, cis-3-(3-((2-(1-benzylpiperidin-4-yl)-4-fluoro-1,1-dioxido-2,3-dihydrobenzo[d]isothiazol-5-yl)amino)-1H-pyrazol-5-yl)cyclopentyl isopropylcarbamate] | 0.023 µM | 1.11 µM
5 | COCCN1Cc2c(ccc(Nc3cc([C@@H]4CC[C@H](OC(=O)NC(C)C)C4)[nH]n3)c2F)S1(=O)=O (relative stereo) [Example 64, cis-3-(3-((4-fluoro-2-(2-methoxyethyl)-1,1-dioxido-2,3-dihydrobenzo[d]isothiazol-5-yl)amino)-1H-pyrazol-5-yl)cyclopentyl isopropylcarbamate] | 0.0046 µM | 0.214 µM
6 | CC(C)NC(=O)O[C@H]1CC[C@@H](c2cc(Nc3ccc4c(c3F)CN(C(C)C)S4(=O)=O)n[nH]2)C1 (relative stereo) [Example 65, cis-3-(3-((4-fluoro-2-isopropyl-1,1-dioxido-2,3-dihydrobenzo[d]isothiazol-5-yl)amino)-1H-pyrazol-5-yl)cyclopentyl isopropylcarbamate] | 0.0069 µM | 0.299 µM
7 | CC(C)NC(=O)O[C@H]1CC[C@@H](c2cc(Nc3ccc4c(c3F)CN(CC(F)(F)F)S4(=O)=O)n[nH]2)C1 (relative stereo) [Example 66, cis-3-(3-((4-fluoro-1,1-dioxido-2-(2,2,2-trifluoroethyl)-2,3-dihydrobenzo[d]isothiazol-5-yl)amino)-1H-pyrazol-5-yl)cyclopentyl isopropylcarbamate] | 0.0073 µM | 0.412 µM
8 | CC(C)NC(=O)O[C@H]1CC[C@@H](c2cc(Nc3ccc4c(c3F)CN(C3CCC3)S4(=O)=O)n[nH]2)C1 (relative stereo) [Example 67, cis-3-(3-((2-cyclobutyl-4-fluoro-1,1-dioxido-2,3-dihydrobenzo[d]isothiazol-5-yl)amino)-1H-pyrazol-5-yl)cyclopentyl isopropylcarbamate] | 0.014 µM | 0.472 µM
9 | CC(C)NC(=O)O[C@H]1CC[C@@H](c2cc(Nc3ccc4c(c3F)CN(C3CCCC3)S4(=O)=O)n[nH]2)C1 (relative stereo) [Example 68, cis-3-(3-((2-cyclopentyl-4-fluoro-1,1-dioxido-2,3-dihydrobenzo[d]isothiazol-5-yl)amino-1H-pyrazol-5-yl)cyclopentyl isopropylcarbamate] | 0.015 µM | 1.18 µM

Continued, values first:

Row | IC50 (CDK2/Cyclin E1) | IC50 (CDK1/Cyclin B1) | SMILES
10 | 0.0095 µM | 0.647 µM | CC(C)NC(=O)O[C@H]1CC[C@@H](c2cc(Nc3ccc4c(c3F)CN(C3CCOC3)S4(=O)=O)n[nH]2)C1 (relative stereo) [Example 69, cis-3-(3-((4-fluoro-1,1-dioxido-2-(tetrahydrofuran-3-yl)-2,3-dihydrobenzo[d]isothiazol-5-yl)amino)-1H-pyrazol-5-yl)cyclopentyl isopropylcarbamate]
11 | 0.011 µM | 0.503 µM | CC(C)NC(=O)O[C@H]1CC[C@@H](c2cc(Nc3ccc4c(c3F)CN(C3CCN(C)C3)S4(=O)=O)n[nH]2)C1 (relative stereo) [Example 70, cis-3-(3-((4-fluoro-2-(1-methylpyrrolidin-3-yl)-1,1-dioxido-2,3-dihydrobenzo[d]isothiazol-5-yl)amino-1H-pyrazol-5-yl)cyclopentyl isopropylcarbamate]
12 | 0.0052 µM | 0.44 µM | CC(C)NC(=O)O[C@H]1CC[C@@H](c2cc(Nc3ccc4c(c3F)CN(CC(O)CO)S4(=O)=O)n[nH]2)C1 (relative stereo) [Example 71, cis-3-(3-((2-(2,3-dihydroxypropyl)-4-fluoro-1,1-dioxido-2,3-dihydrobenzo[d]isothiazol-5-yl)amino)-1H-pyrazol-5-yl)cyclopentyl isopropylcarbamate]
13 | 5.91 µM | > 10 µM | CC(C)NC(=O)O[C@H]1CC[C@@H](c2cc(Nc3ccc4c(c3F)CN(CC(O)CO)S4(=O)=O)nn2CC(O)CO)C1 (relative stereo) [Example 72, cis-3-(1-(2,3-dihydroxypropyl)-3-((2-(2,3-dihydroxypropyl)-4-fluoro-1,1-dioxido-2,3-dihydrobenzo[d]isothiazol-5-yl)amino)-1H-pyrazol-5-yl)cyclopentyl isopropylcarbamate]
14 | 0.0079 µM | 0.583 µM | CC(C)NC(=O)O[C@H]1CC[C@@H](c2cc(Nc3ccc4c(c3F)CN(CCCN(C)C)S4(=O)=O)n[nH]2)C1 (relative stereo) [Example 73, cis-3-(3-((2-(3-(dimethylamino)propyl)-4-fluoro-1,1-dioxido-2,3-dihydrobenzo[d]isothiazol-5-yl)amino)-1H-pyrazol-5-yl)cyclopentyl isopropylcarbamate]
15 | 0.016 µM | 0.962 µM | CC(C)NC(=O)O[C@H]1CC[C@@H](c2cc(Nc3ccc4c(c3F)CN(CCN(C)C)S4(=O)=O)n[nH]2)C1 (relative stereo) [Example 74, cis-3-(3-((2-(2-(dimethylamino)ethyl)-4-fluoro-1,1-dioxido-2,3-dihydrobenzo[d]isothiazol-5-yl)amino-1H-pyrazol-5-yl)cyclopentyl isopropylcarbamate]
16 | 0.016 µM | 1.08 µM | CC(C)NC(=O)O[C@H]1CC[C@@H](c2cc(Nc3ccc4c(c3F)CN(Cc3ccccc3)S4(=O)=O)n[nH]2)C1 (relative stereo) [Example 75, cis-3-(3-((2-benzyl-4-fluoro-1,1-dioxido-2,3-dihydrobenzo[d]isothiazol-5-yl)amino)-1H-pyrazol-5-yl)cyclopentyl isopropylcarbamate]
17 | 0.01 µM | 0.416 µM | CC(C)NC(=O)O[C@H]1CC[C@@H](c2cc(Nc3ccc4c(c3F)CN(CC(C)(C)O)S4(=O)=O)n[nH]2)C1 (relative stereo) [Example 76, cis-3-(3-((4-fluoro-2-(2-hydroxy-2-methylpropyl)-1,1-dioxido-2,3-dihydrobenzo[d]isothiazol-5-yl)amino)-1H-pyrazol-5-yl)cyclopentyl isopropylcarbamate]
